# Earlier results, collected in patent US20220079967A1, “COMPOSITION FOR IMPROVING VASCULAR ENDOTHELIAL FUNCTION” (SAN-EI GEN F.F.I., INC., priority 2019, published 2022).
# Test system: endothelial function and blood pressure
# Details: administered to human, also with increased dosage (Bondonno et al. 2016)
smiles,measurement,value
O=c1c(O[C@@H]2O[C@H](CO)[C@@H](O)[C@H](O)[C@H]2O)c(-c2ccc(O)c(O)c2)oc2cc(O)cc(O)c12 [isoquercitrin],effect on FMD value,does not affect
same,effect on blood pressure,does not affect
